Data on 7 compounds can be found in patent US5652366A, “DI (1R)-(-)camphosulfonic acid) salt, preparation thereof and use thereof” (Rhone-Poulenc Rorer Pharmaceuticals Inc., priority 1995, dated 1997).

Where two headings read alike, the source gives them in different places.

The subject of assay [1] is swine coronary arteries. The assay is described as follows: In vitro vasorelaxation in isolated swine coronary arteries (PGF2α-contracted rings). The format is cell-based. Conditions: Sus scrofa; 50% reduction in tension, 3 μM PGF2α; Table II; read-out: Vasorelaxation in Swine Coronary Artery/IC50. Here is the method: Swine coronary arteries were obtained from a local slaughter house, dissected carefully and cleaned of fat, blood and adhering tissue. Rings approximately 2-3 mm wide were cut and transferred to water-jacketed tissue baths (10 ml) filled with warm (37° C.), oxygenated (O2 /CO2 :95%/5%) Krebs-Henseleit buffer and mounted on L-shaped hooks between stainless steel rods and a force transducer. […] Rings were equilibrated for 90 minutes with frequent buffer changes at a resting tension of 5 g In order to assure optimal tension development, arterial rings were primed twice with 36 mM KCl and once with 10 μm. PGF2α, before being exposed to 3 μM PGF2α. […] Tension achieved with 3 μM PGF2α was considered .equivalent to 100%; all other values were expressed as a percentage of that maximum.

The test system of assay [2] is normotensive anesthetized rat. The assay is described as follows: In vivo mean arterial pressure and heart rate in normotensive anesthetized rat. Conditions: iv. The protocol:
Normotensive rats were anesthetized with sodium pentobarbital (50 mg/kg, j.p.) and placed on a heated surgical table. Cannulas were inserted into the femoral artery and […] to allow the measurement of arterial pressure and to facilitate the intravenous administration of test compounds. The animals was allowed to equilibrate for 10 minutes after surgery. Mean arterial pressure was continuously measured and recorded and heart rate was monitored using the arterial pressure pulse to trigger a cardiotachometer. After baseline parameters were established and recorded, increasing doses (1, 3, 10, 30, 100, 300 and 1000 μg/kg) of the compound of the invention to be tested were administered intravenously. Maximal changes in the cardiovascular parameters were observed after each dose of the adenosine agonist. Only one compound was administered per rat.

For assay [3], the system named is spontaneously hypertensive rat (SHR). The assay is described as follows: Oral antihypertensive activity in conscious spontaneously hypertensive rat (SHR). The format is in vivo. The protocol:
The oral antihypertensive activity of compounds of the invention were examined in conscious spontaneously hypertensive rats. The rats were anesthetized with sodium pentabarbatol (50 mg/kg i.p.). A telemetry transducer was implanted into the rats abdomen via midline incision. The cannula of the transducer was inserted into the abdomenal aorta to allow direct measurement of arterial pressure in the conscious SHR. The transducer was secured to the abdomenal wall. After recovery from surgery (minimum of seven days), the SHR were placed on a receiver plate and the transducer/transmitter was activated. Systolic, diastolic and mean arterial pressure and heart rate were recorded for 1.5 hours in the unrestrained conscious rat to establish a stable baseline. Each rat then received a single dose of the compound of the invention to be tested, or vehicle, and changes in arterial pressure and heart rate were monitored for 20 hours and recorded.

The target in assay [4] is T1, A1 adenosine receptor (Rattus norvegicus, UniProt P25099).
T1 sequence (P25099 1-326): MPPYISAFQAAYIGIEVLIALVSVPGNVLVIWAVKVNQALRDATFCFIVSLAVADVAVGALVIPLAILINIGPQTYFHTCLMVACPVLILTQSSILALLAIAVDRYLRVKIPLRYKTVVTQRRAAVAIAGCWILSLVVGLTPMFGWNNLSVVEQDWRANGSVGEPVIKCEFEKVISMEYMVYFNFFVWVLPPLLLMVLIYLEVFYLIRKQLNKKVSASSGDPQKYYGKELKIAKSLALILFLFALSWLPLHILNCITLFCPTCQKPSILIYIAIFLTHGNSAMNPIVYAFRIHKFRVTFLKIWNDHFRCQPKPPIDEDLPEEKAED
The assay is described as follows: biochemical. Conditions: rat whole brain membranes, 3H-CHA; Table II; read-out: Adenosine Receptor Binding Activity/IC50 (nM) A1. Here is the method: Non-specific binding was assessed in the presence of 1 mM theophylline.
The assays were run in glass test tubes in duplicate at 25° C. Once the membranes were added, the tubes were vortexed and incubated at 25° C. for 60 minutes (A1 assay) or 90 minutes (A2 assay) on a rotary shaker. The assay tubes were vortexed halfway through the incubation and again near the end. The assays were terminated by rapid filtration through 2.4 cm GF/B filters using a Brandel Cell Harvestor. The test tubes were washed three times with cold 50 mM tris-HCl (pH 7.7 or 7.4), with filtration being completed within 15 seconds. The damp filter circles were placed in glass scintillation vials filled with 10 ml of Aquasol II (New England Nuclear). The vials were allowed to shake overnight on a rotary shaker and were placed into a liquid scintillation analyzer for two minute counts. IC50 values for receptor binding, i.e. the concentration at which a compound of the invention displaced the radiolabeled standard, were obtained using a curve-fitting computer program (RS/1, Bolt, Beranek and Newman, Boston, Mass.).

In assay [5] the target is A2 adenosine receptor (Rattus norvegicus, UniProt P30543). The assay is described as follows: biochemical. Conditions: rat brain striatum membranes, 3H-CGS 21680; Table II; read-out: Adenosine Receptor Binding Activity/IC50 (nM) A2.
A2 adenosine receptor, sequence (P30543 whole entry): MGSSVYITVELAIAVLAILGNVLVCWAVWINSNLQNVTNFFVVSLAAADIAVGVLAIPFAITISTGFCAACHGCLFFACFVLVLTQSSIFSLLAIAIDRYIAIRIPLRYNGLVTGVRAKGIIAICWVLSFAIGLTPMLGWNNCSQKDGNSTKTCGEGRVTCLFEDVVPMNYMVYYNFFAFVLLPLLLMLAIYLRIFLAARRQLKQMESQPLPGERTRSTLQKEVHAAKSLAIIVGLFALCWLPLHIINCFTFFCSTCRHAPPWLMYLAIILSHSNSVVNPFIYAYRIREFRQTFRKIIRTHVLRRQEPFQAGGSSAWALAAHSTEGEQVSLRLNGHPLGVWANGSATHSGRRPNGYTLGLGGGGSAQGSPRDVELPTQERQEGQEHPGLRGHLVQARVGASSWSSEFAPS
Assay [6] concerns rat adipocytes. The assay is described as follows: In vitro lipolysis assay in rat adipocytes (glycerol production). The format is cell-based. Conditions: Rattus norvegicus, Adipocyte; for EC50: read-out: EC50 (50% inhibition of glycerol production), unit nM in cell. Here is the method:
Adipose tissue is removed from anesthetized rats and rinsed twice in incubation medium (2.09 g sodium bicarbonate and 0.04 g EDTA, disodium salt, in 1 L Krebs buffer). Each rat (300-350 g) yields approximately 4 ml of adipose tissue. The adipose tissue (35 ml) is cut into small pieces with scissors and washed with incubation medium (50 ml). The mixture is poured into the barrel of a 50 ml syringe to which is attached a short piece of clamped tubing instead of a needle. The aqueous phase is allowed to drain. A second wash with incubation medium is passed through the syringe. The tissue is added to 50 ml of collagenase solution (collagenase(90 mg), bovine serum albumin (BSA) (500 mg), and 0.1 M calcium chloride solution (1 ml), in incubation medium (50 ml)) in a 1 L bottle. The mixture is shaken in an environmental at 37° C. for about 60 minutes under an atmosphere of 95% oxygen/5% carbon dioxide to effect digestion of the tissue. The dispersed cells are poured through 2 layers of cheese cloth into a 100 ml plastic beaker. The undigested clumps in the cloth are rinsed once with incubation medium (20 ml). The cells in the beaker are centrifuged in 2 plastic tubes for 30 seconds at room temperature at 300 rpm. The aqueous phase is aspirated from beneath the loosely packed layer of floating fat cells and discarded. The adipocytes are gently poured into a 250 ml plastic beaker containing 100 ml of rinse solution (1 g BSA per 100 ml incubation medium). After gentle stirring the centrifugation step is repeated. Another wash with rinse solution follows. The cells are pooled and their volume is estimated with a graduated cylinder. The adipocytes are diluted in twice their volume of assay buffer (incubation medium (120 ml), BSA (1.2 g), pyruvic acid (13 mg)).
The assay is performed in 20 ml plastic scintillation vials and the total assay volume is 4.2 ml. Assay buffer (2.5 ml), diluted adipocytes (1.5 ml), and a solution of the compound to be tested (12.3 μL) adenosine agonist (12.3 μl; varying concentration) is incubated in the environmental shaker for 15 minutes, then the reaction is started with norepinephrine solution (41.2 μL) (10 nM, in a carrier solution containing water (100 ml), BSA (4 mg), and 0.1 M EDTA (20 I. LL))and adenosine deaminase (1 μg/ml, 41.2 μl). After sixty minutes in the shaker the reaction is terminated by putting the vials on ice. […] The hard lipid layer is removed by aspiration and the aqueous layer is assayed for glycerol (400 μl of sample). The positive control is done in the absence of any adenosine agonist, substituting water in place of the solution to be tested.

Where [7] appears, read: dose lowering heart rate by 25%, read-out: Blood Press/Heart Rate Anesthetized Rat HR/ED25.
Where [8] appears, read: dose lowering mean arterial pressure by 25%, read-out: Blood Press/Heart Rate Anesthetized Rat MAP/ED25.

As for `OC[C@H]1O[C@@H](n2cnc3c(N[C@@H]4CC=CC[C@H]4c4cccs4)ncnc32)[C@H](O)[C@@H]1O` (relative stereo) [Example 4, N6-[trans-2-(thiophen-2-yl)cyclohex-4-en-yl]adenosine], the EC50 in assay [1] turned out to be 0.73 µM. For the same compound, the ED25 in assay [2] (setting [7]) turned out to be 0.019 mg/kg. Further, the ED25 in assay [2] (setting [8]) is 0.013 mg/kg. Also, in assay [3] (5 mg/kg, D = decrease), the “SHR HR/%” value is 20% and the “SHR MAP/%” value is 28%.

In the case of `OC[C@H]1O[C@@H](n2cnc3c(N[C@@H]4CCCC[C@H]4c4cccs4)ncnc32)[C@H](O)[C@@H]1O` (relative stereo) [Example 7, N^6-[trans-2-(thiophen-2-yl)-cyclohex-1-yl]adenosine], the EC50 in assay [1] was 4 µM. Further, the ED25 in assay [2] (setting [7]) stood at 0.018 mg/kg. The ED25 in assay [2] (setting [8]) worked out at 0.006 mg/kg. In assay [3] (5 mg/kg, D = decrease), the “SHR HR/%” value turned out to be 22% and the “SHR MAP/%” value is given as 45%.

For the compound `CCNC(=O)[C@H]1C[C@@H](n2cnc3c(NCCc4scnc4C)ncnc32)[C@H](O)[C@@H]1O` (relative stereo) [Example 24, (±)-N^6-[2-(4"-methyl-5"-thiazolyl)thyl]carbocyclic adenosine-5'-N-ethyl carboxamide], the ED25 is more than 0.01 mg/kg in assay [2] (setting [7]) and 0.006 mg/kg in assay [2] (setting [8]). Besides, the “SHR MAP/%” value in assay [3] (5 mg/kg, D = decrease) is reported as 17%. Moreover, the “SHR HR/%” value in assay [3] (5 mg/kg, I = increase) was 6%.

Turning to `CCNC(=O)[C@H]1C[C@@H](n2cnc3c(NCCNc4nc5ccccc5s4)ncnc32)[C@H](O)[C@@H]1O` (relative stereo) [Example 29, (±)-N^6-[2-(2'-aminobenzothia-zolyl)ethyl]carbocyclic adenosine-5'-N-ethyl carboxamide], the IC50 in assay [4] is 35.5 nM; in assay [5], more than 1000 nM. Moreover, the EC50 in assay [1] came out at 22 µM. Moreover, the ED25 amounted to 0.031 mg/kg in assay [2] (setting [7]) and 0.016 mg/kg in assay [2] (setting [8]). In addition, the “SHR HR/%” value in assay [3] (5 mg/kg, D = decrease) came to 12%. In addition, the “SHR MAP/%” value in assay [3] (5 mg/kg, D = decrease) amounted to 18%.

Turning to `CCNC(=O)[C@H]1C[C@@H](n2cnc3c(N[C@H](C)Cc4cccs4)ncnc32)[C@H](O)[C@@H]1O` (single isomer, unassigned) [Example 27], in assay [1], the EC50 came to 0.043 µM. In addition, the “SHR MAP/%” value in assay [3] (1 mg/kg, D = decrease) was found to be 27%. The “SHR HR/%” value in assay [3] (1 mg/kg, I = increase) worked out at 1%.

As for `CCNC(=O)[C@H]1C[C@@H](n2cnc3c(N[C@H](C)Cc4ccc(Cl)s4)ncnc32)[C@H](O)[C@@H]1O` [Example 6, (-)-[2S-[2α,3α-dihydroxy-4-β-[N6-[2-(5-chloro-2-thienyl)-(1R)-1-methylethyl]amino]-9-adenyl]cyclopentane]-1-β-N-ethylcarboxamide], the IC50 in assay [4] was found to be 2.69 nM; in assay [5], 12.9 nM. Besides, the EC50 was found to be 0.021 µM in assay [1] and 0.76 nM in assay [6]. Also, the “SHR MAP/%” value in assay [3] (1 mg/kg, D = decrease) came out at 18%. Moreover, the “SHR HR/%” value in assay [3] (1 mg/kg, I = increase) stood at 7%.

For orientation: inhibition means the relative decrease from the control value, in per cent. As for `CCNC(=O)[C@H]1C[C@@H](n2cnc3c(NCCc4cccs4)ncnc32)[C@H](O)[C@@H]1O` [Example 26, (-)-N^6-[(thiophen-2"-yl)ethan-2-yl]carbocyclic adenosine-5'-N-ethyl carboxamide], the IC50 came to 87.1 nM in assay [4] and 63.1 nM in assay [5]. The EC50 in assay [1] stood at 0.082 µM; in assay [6], 89 nM. In addition, the values for the ED25 in assay [2] (setting [7]) and in assay [2] (setting [8]) were more than 0.03 mg/kg and 0.004 mg/kg, respectively. For the same compound, the “SHR MAP/%” value in assay [3] (2.5 mg/kg, D = decrease) is 41%. Moreover, the “SHR HR/%” value in assay [3] (2.5 mg/kg, I = increase) was determined as 3%. Further, the inhibition at 1 µM in assay [6] (1 μM, versus positive control, read-out: % Inhibition of glycerol production) stood at 96%.
